{
  "source": "patent US20170189443A1",
  "about": "“COMPOSITIONS AND METHODS FOR TREATMENT OF DISEASES AND CONDITIONS EMPLOYING ORAL ADMINISTRATION OF SODIUM PENTOSAN POLYSULFATE AND OTHER PENTOSAN POLYSULFATE SALTS” (URIGEN PHARMACEUTICALS, INC., priority 2014, published 2017)",
  "origin": "cited, not measured here",
  "key": {"interstitial cystitis [1]": {"system": "interstitial cystitis", "settings": "intravesical instillations"}, "interstitial cystitis [2]": {"system": "interstitial cystitis", "settings": "intravesical"}, "[3]": {"settings": "tritiated pentosan polysulfate, healthy human volunteers, Simon et al. 2005"}, "[4]": {"settings": "oral administration"}},
  "note": "Like-named read-outs stand apart in the source and are kept apart here.",
  "data": [
    {"compound": "C[S+](C)[O-]", "note": "[DMSO, dimethylsulfoxide]", "values": [
      {"measurement": "IC patients treated with benefit", "setting": "interstitial cystitis [1]", "value": "~50", "unit": "%"}
    ]},
    {"compound": "O=S(=O)(O)CCS", "note": "[Mesnex, mesna]", "values": [
      {"measurement": "frequency of adverse events (all AEs)", "setting": "IV", "value": 85, "unit": "%"},
      {"measurement": "frequency of adverse events (all AEs)", "setting": "oral", "value": 89, "unit": "%"}
    ]},
    {"compound": "heparin", "values": [
      {"measurement": "patients treated in whom the agent is effective", "setting": "interstitial cystitis [2]", "value": "approximately 50%"}
    ]},
    {"compound": "sodium pentosan polysulfate", "values": [
      {"measurement": "excreted through urine", "setting": "[3]", "value": 6, "unit": "%"},
      {"measurement": "excreted unchanged in feces", "setting": "[3]", "value": "more than 94%"},
      {"measurement": "oral availability", "setting": "[4]", "value": "2-6%"}
    ]}
  ]
}
